According to US11534457B2, “Use of dextran sulfate” (priority 2017, dated 2022):

Tested on: severe traumatic brain injury (sTBI)
Assay: sTBI in rats, brain gene expression arrays and pathway analysis (Example 9)
Assay type: in vivo, Male Wistar rats
Set-up: key to z score, canonical pathway Dendritic Cell Maturation / z score, canonical pathway Adrenomedullin Signaling pathway / z score, canonical pathway Endothelin-1 Signaling / effect on canonical pathway Adrenomedullin Signaling pathway / effect on canonical pathway Endothelin-1 Signaling / effect on canonical pathway Dendritic Cell Maturation / Ingenuity canonical pathway Adrenomedullin signaling pathway, z score / Ingenuity canonical pathway FLT3 Signaling in Hematopoietic Progenitor Cells, z score / Ingenuity canonical pathway Opioid Signaling Pathway, z score / Ingenuity canonical pathway VDR/RXR Activation, z score / Ingenuity canonical pathway Neuropathic Pain Signaling In Dorsal Horn Neurons, z score / Ingenuity canonical pathway STAT3 Pathway, z score / Ingenuity canonical pathway IL-1 Signaling, z score / Ingenuity canonical pathway IL-6 Signaling, z score / Ingenuity canonical pathway NF-κB Signaling, z score / Ingenuity canonical pathway Role of NFAT in Cardiac Hypertrophy, z score / Ingenuity canonical pathway PPARα/RXRα Activation, z score: *: ambiguous effect
Conditions: for effect of TBI on molecular processes and diseases: given 30 minutes after injury; for TBI-induced alterations in neurodegeneration and scarring-related canonical pathways: given within 30 minutes of TBI
Experimental: The experimental protocol used in this study was approved by the Ethical Committee of the Catholic University of Rome, according to international standards and guidelines for animal care. Male Wistar rats of 300-350 g body weight were fed with standard laboratory diet and water ad libitum in a controlled environment. As the anesthetic mixture, the animals received 35 mg/kg b.w. ketamine and 0.25 mg/kg body weight midazolam by i.p. injection. Severe traumatic brain injury (sTBI) was induced by dropping a 450 g weight from 2 m height on to the rat head that had been protected by a metal disk previously fixed on the skull, according to the “weight drop” impact acceleration model (Marmarou et al., A new model of diffuse brain injury in rats. Part I: Pathophysiology and biomechanics. J Neurosurg. 1994; 80: 291-300). […] At the end of each period of treatment, rats were anesthetized again and then immediately sacrificed.
LMW-DS (Tikomed AB) was provided at a stock concentration of 20 mg/ml and was kept in a temperature-monitored refrigerator at 4° C. LMW-DS aliquots were diluted to the appropriate dosing concentration in sterile saline prior to delivery of a single subcutaneous injection.
Three doses of LMW-DS were administered subcutaneously 30 minutes post-TBI. The animals were sacrificed at 2 days post-TBI. The animals were divided into the following subgroups:
Three doses of LMW-DS were administered subcutaneously 30 minutes post-TBI. The animals were sacrificed at 7 days post-TBI. The animals were divided into the following subgroups:
An in vivo craniectomy was performed on all animals during anesthesia. After carefully removing the rat's skull, the brain was exposed and removed with a surgical spatula and quickly dropped in RNALater and preserved at 4° C. for further processing.
RNA extraction and array processing was carried out by SourceBioscience. The arrays used were the Agilent Rat expression arrays.
Statistical analysis was carried out using the Metaboanalyst software package. Gene expression changes of 10% with a p<0.05 were regarded as significant.
Pathway analysis of the differentially regulated genes was carried out using the Ingenuity pathway analysis package. The analysis was performed with special reference to pathways and molecular processes and diseases associated with neurodegenerative disease, including dementia, Alzheimer's disease, ALS, TBI and stroke, and with scarring and fibrosis, including glaucoma and normal pressure hydrocephalus (NPH) after subarachnoid haemorrhage.

[1] = TBI + 15 mg/kg repeat dose LMW-DS, after 7 days, TBI: Inhibited
[2] = TBI + 15 mg/kg repeated dose LMW-DS, 7 days after TBI
[3] = TBI + 15 mg/kg repeated dose LMW-DS, 7 days after TBI, relative to control

low molecular weight dextran sulfate [LMW-DS]
Diseases or functions annotation: Differentiation of bone cells [1]: Inhibited | Diseases or functions annotation: Differentiation of connective tissue cells [1]: Inhibited | Diseases or functions annotation: Digestive system cancer [1]: Inhibited | Diseases or functions annotation: Epithelial neoplasm [1]: Inhibited | Diseases or functions annotation: Formation of cellular protrusions [1]: Activated | Diseases or functions annotation: Formation of intercellular junctions [1]: Activated | Diseases or functions annotation: Learning [1]: Activated | Diseases or functions annotation: Microtubule dynamics [1]: Activated | Diseases or functions annotation: Migration of cells [1]: Activated | Diseases or functions annotation: Morphogenesis of neurons [1]: Activated | Diseases or functions annotation: Neurotransmission [1]: Activated | Diseases or functions annotation: Non-hematological solid tumor [1]: Inhibited | Diseases or functions annotation: Non-melanoma solid tumor [1]: Inhibited | Diseases or functions annotation: Nonhematologic malignant neoplasm [1]: Inhibited | Diseases or functions annotation: Organization of cytoplasm [1]: Activated | Diseases or functions annotation: Organization of cytoskeleton [1]: Activated | Diseases or functions annotation: Quantity of Ca^2+ [1]: Activated | Diseases or functions annotation: Quantity of carbohydrate [1]: Inhibited | Diseases or functions annotation: Quantity of cells [1]: Activated | Diseases or functions annotation: Size of body [1]: Activated | Diseases or functions annotation: Transport of ion [1]: Activated | Diseases or functions annotation: Transport of metal [1]: Activated | Diseases or functions annotation: Transport of molecule [1]: Activated | Diseases or functions annotation: Tumorigenesis of tissue [1]: Inhibited | Ingenuity canonical pathway: 3-phosphoinositide Degradation [2]: Activated | Ingenuity canonical pathway: Acute Phase Response Signaling [2]: Inhibited | Ingenuity canonical pathway: Adrenomedullin signaling pathway [2]: Inhibited | Ingenuity canonical pathway: B Cell Receptor Signaling [2]: Inhibited | Ingenuity canonical pathway: Ephrin Receptor Signaling [2]: Activated | Ingenuity canonical pathway: Fc Epsilon RI Signaling [2]: Inhibited | Ingenuity canonical pathway: G Beta Gamma Signaling [2]: Activated | Ingenuity canonical pathway: NF-κB Signaling [2]: Activated | Ingenuity canonical pathway: Opioid Signaling Pathway [2]: Activated | Ingenuity canonical pathway: Role of NFAT in Cardiac Hypertrophy [2]: Activated | Ingenuity canonical pathway: Role of NFAT in Regulation of the Immune Response [2]: Activated | Ingenuity canonical pathway: Signaling by Rho Family GTPases [2]: Activated | Ingenuity canonical pathway: Superpathway of Inositol Phosphate Compounds [2]: Activated | Ingenuity canonical pathway: Synaptic Long Term Depression [2]: Activated | z score: Abdominal cancer [2]: −2.015 | z score: Abdominal neoplasm [2]: −1.116 | z score: Adenocarcinoma [2]: −0.944 | z score: Branching of cells [2]: 0.397 | z score: Carcinoma [2]: −0.358 | z score: Cell movement [2]: 0.154 | z score: Cell-cell contact [2]: 1.504 | z score: Concentration of hormone [2]: 0.825 | z score: Concentration of lipid [2]: −0.204 | z score: Dendritic growth/branching [2]: −0.169 | z score: Development of connective tissue cells [2]: −0.005 | z score: Development of gap junctions [2]: 0.849 | z score: Development of neurons [2]: 0.688 | z score: Developmental process of synapse [2]: 0.849 | z score: Differentiation of bone cells [2]: −0.237 | z score: Differentiation of connective tissue cells [2]: −0.011 | z score: Digestive organ tumor [2]: −1.481 | z score: Digestive system cancer [2]: −1.513 | z score: Epithelial neoplasm [2]: −0.999 | z score: Extracranial solid tumor [2]: 0.529 | z score: Formation of cellular protrusions [2]: 1.183 | z score: Formation of intercellular junctions [2]: 0.391 | z score: Gastrointestinal tumor [2]: −1.284 | z score: Hematologic cancer [2]: −2.216 | z score: Hematopoietic neoplasm [2]: −2.027 | z score: Learning [2]: 0.469 | z score: Microtubule dynamics [2]: 1.962 | z score: Migration of cells [2]: 0.271 | z score: Morphogenesis of neurons [2]: 0.205 | z score: Neurotransmission [2]: 1.214 | z score: Non-hematologic malignant neoplasm [2]: −0.223 | z score: Non-hematological solid tumor [2]: −0.913 | z score: Non-melanoma solid tumor [2]: −1.478 | z score: Obesity [2]: 2.18 | z score: Organization of cytoplasm [2]: 1.922 | z score: Organization of cytoskeleton [2]: 1.922 | z score: Quantity of carbohydrate [2]: −0.017 | z score: Quantity of cells [2]: 0.493 | z score: Seizure disorder [2]: 1.376 | z score: Size of body [2]: 0.67 | z score: Skin lesion [2]: 0.532 | z score: Transport of ion [2]: 1.109 | z score: Transport of metal [2]: 1 | z score: Transport of molecule [2]: 1.143 | z score: Tumorigenesis of tissue [2]: −1.333 | Ingenuity canonical pathway 3-phosphoinositide Degradation, z score [3]: 2 | Ingenuity canonical pathway Acute Phase Response Signaling, z score [3]: −0.447 | Ingenuity canonical pathway Adrenomedullin signaling pathway, z score [3]: −0.378 | Ingenuity canonical pathway B Cell Receptor Signaling, z score [3]: −0.447 | Ingenuity canonical pathway Ephrin Receptor Signaling, z score [3]: 2.236 | Ingenuity canonical pathway FLT3 Signaling in Hematopoietic Progenitor Cells, z score [3]: * | Ingenuity canonical pathway Fc Epsilon RI Signaling, z score [3]: −1 | Ingenuity canonical pathway G Beta Gamma Signaling, z score [3]: 2.236 | Ingenuity canonical pathway IL-1 Signaling, z score [3]: * | Ingenuity canonical pathway IL-6 Signaling, z score [3]: * | Ingenuity canonical pathway NF-κB Signaling, z score [3]: 0.447 | Ingenuity canonical pathway Neuropathic Pain Signaling In Dorsal Horn Neurons, z score [3]: * | Ingenuity canonical pathway Opioid Signaling Pathway, z score [3]: 0.816 | Ingenuity canonical pathway Role of NFAT in Cardiac Hypertrophy, z score [3]: 0.447 | Ingenuity canonical pathway Role of NFAT in Regulation of the Immune Response, z score [3]: 2.236 | Ingenuity canonical pathway Signaling by Rho Family GTPases, z score [3]: 1 | Ingenuity canonical pathway Superpathway of Inositol Phosphate Compounds, z score [3]: 2 | Ingenuity canonical pathway Synaptic Long Term Depression, z score [3]: 1.342 | effect of TBI on molecular processes and diseases (2 days): mostly abolished | effect of TBI on molecular processes and diseases (7 days): mostly abolished | TBI-induced alterations in neurodegeneration and scarring-related canonical pathways (2 days): counteracted | TBI-induced alterations in neurodegeneration and scarring-related canonical pathways (7 days): counteracted
